Assay results from patent publication US11505521B2 (Biothea Pharma, Inc., priority 2018, dated 2022).
Read-outs that look alike come from different tables or passages of the source.

Method: The stability of the pharmaceutical compositions of Example 3 were tested. The stability studies were conducted on packaged epinephrine salts at 25° C./RH 60% and 40° C./RH 75% conditions, as well as samples without packaging and exposed to light (4500 Lux) for one month. The appearance, assay content, and related substances were examined at 5, 7, 14 and 30 days.
(§1) The assay content was tested using Sartorius balances (Model SQP), an INESA pH meter (Model PHS-3E), a Thermo HPLC (UltiMate 3000 System, UV Wavelength: 205 nm), and Phenomenex Luna columns (5 μm C18 (2), 4.6×250 mm). The column temperature was 40° C., and the autosampler temperature was room temperature. The injection volume was 5 μL.
Mobile Phase A was prepared by weighing 4.0 g tetramethylammonium bisulfate (MERYER, Batch No. 77957139) and 1.1 sodium 1-heptasulfonate (Admas-beta, Batch No. P1343755), and transferring the materials to a flask. 2 mL of 0.1 mol/L EDTA solution (Brand: Sinopharm Chemical Reagent Co., Ltd., Batch No. 20150410) was added to the flask and the volume was adjusted to 950 mL using water. The solution was mixed and adjusted to a pH of 3.5 with 0.1N sodium hydroxide solution (Brand: Enox, Batch No. 20161201). Mobile Phase B was prepared using methanol. The isocratic elution was used in a proportion of A/B of 85/15. The run time was 10 minutes.
The assay content was analyzed by dissolving 20 mg of each sample to be examined in 50 mL of Mobile Phase A (0.4 mg/mL) as assay test solution. The sample was used and tested right after it was ready and was protected from light.
as §1, with “purity” for “assay content”, “PhenomenexSynergi” for “Phenomenex Luna”, “(4” for “(5”, “Polar-RP 80 A 250×4.6” for “C18 (2), 4.6×250”, “30°” for “40°”
Mobile Phase A was prepared by weighing 1.136 g of potassium dihydrogen orthophosphate (Brand: CNW, Batch No. A1040040) and 1.74 g of dipotassium hydrogen orthophosphate (Brand: Ourchem, Batch No. 20160219) and transferring into 1000 mL of water. The pH was adjusted to 3.0±0.05 with orthophosphoric acid (Brand: Ourchem, Batch No. 4112K060). The solution was filtered through a 0.45 μm membrane and degassed. Mobile Phase B was prepared using methanol. The run time was 50 minutes.
The purity was analyzed by dissolving 10 mg of each sample to be examined in 25 mL of Mobile Phase A (0.4 mg/mL) as purity and related substance test solution. The sample was used and tested right after it was ready and was protected from light.

[1] = light 4500 Lux, under air, 0 days
[2] = light 4500 Lux, under air, 5 days
[3] = light 4500 Lux, under air, 7 days
[4] = light 4500 Lux, under air, 14 days
[5] = light 4500 Lux, under air, 30 days

CNC[C@H](O)c1ccc(O)c(O)c1 [epinephrine malonate]
Appearance (25° C./60% RH, 0 days): Off-white
Content (%) (25° C./60% RH, 0 days): 100.00%
Related substance (%) (25° C./60% RH, 0 days): 0.01%
Appearance (25° C./60% RH, 5 days): Off-white
Content (%) (25° C./60% RH, 5 days): 99.94%
Related substance (%) (25° C./60% RH, 5 days): 0.02%
Appearance (25° C./60% RH, 7 days): Off-white
Content (%) (25° C./60% RH, 7 days): 99.62%
Related substance (%) (25° C./60% RH, 7 days): 0.02%
Appearance (25° C./60% RH, 14 days): Off-white
Content (%) (25° C./60% RH, 14 days): 98.81%
Related substance (%) (25° C./60% RH, 14 days): 0.05%
Appearance (25° C./60% RH, 30 days): Off-white
Content (%) (25° C./60% RH, 30 days): 100.64%
Related substance (%) (25° C./60% RH, 30 days): 0.05%
Appearance (40° C./75% RH, 0 days): Off-white
Content (%) (40° C./75% RH, 0 days): 100.00%
Related substance (%) (40° C./75% RH, 0 days): 0.01%
Appearance (40° C./75% RH, 5 days): Off-white
Content (%) (40° C./75% RH, 5 days): 100.25%
Related substance (%) (40° C./75% RH, 5 days): 0.03%
Appearance (40° C./75% RH, 7 days): Off-white
Content (%) (40° C./75% RH, 7 days): 101.64%
Related substance (%) (40° C./75% RH, 7 days): 0.02%
Appearance (40° C./75% RH, 14 days): Off-white
Content (%) (40° C./75% RH, 14 days): 99.63%
Related substance (%) (40° C./75% RH, 14 days): 0.08%
Appearance (40° C./75% RH, 30 days): Off-white
Content (%) (40° C./75% RH, 30 days): 99.87%
Related substance (%) (40° C./75% RH, 30 days): 0.11%
Appearance [1]: Off-white
Content (%) [1]: 100.00%
Related substance (%) [1]: 0.01%
Appearance [2]: Off-white
Content (%) [2]: 99.81%
Related substance (%) [2]: 0.03%
Appearance [3]: Off-white
Content (%) [3]: 98.76%
Related substance (%) [3]: 0.03%
Appearance [4]: Off-white
Content (%) [4]: 99.83%
Related substance (%) [4]: 0.06%
Appearance [5]: Off-white
Content (%) [5]: 100.64%
Related substance (%) [5]: 0.04%

epinephrine maleate
Appearance (25° C./60% RH, 0 days): Off-white
Content (%) (25° C./60% RH, 0 days): 100.00%
Related substance (%) (25° C./60% RH, 0 days): 0.17%
Appearance (25° C./60% RH, 5 days): Off-white
Content (%) (25° C./60% RH, 5 days): 99.50%
Related substance (%) (25° C./60% RH, 5 days): 0.18%
Appearance (25° C./60% RH, 7 days): Off-white
Content (%) (25° C./60% RH, 7 days): 99.97%
Related substance (%) (25° C./60% RH, 7 days): 0.17%
Appearance (25° C./60% RH, 14 days): Off-white
Content (%) (25° C./60% RH, 14 days): 99.43%
Related substance (%) (25° C./60% RH, 14 days): 0.16%
Appearance (25° C./60% RH, 30 days): Off-white
Content (%) (25° C./60% RH, 30 days): 100.69%
Related substance (%) (25° C./60% RH, 30 days): 0.17%
Appearance (40° C./75% RH, 0 days): Off-white
Content (%) (40° C./75% RH, 0 days): 100.00%
Related substance (%) (40° C./75% RH, 0 days): 0.17%
Appearance (40° C./75% RH, 5 days): Off-white
Content (%) (40° C./75% RH, 5 days): 99.30%
Related substance (%) (40° C./75% RH, 5 days): 0.17%
Appearance (40° C./75% RH, 7 days): Off-white
Content (%) (40° C./75% RH, 7 days): 97.76%
Related substance (%) (40° C./75% RH, 7 days): 0.18%
Appearance (40° C./75% RH, 14 days): Off-white
Content (%) (40° C./75% RH, 14 days): 99.24%
Related substance (%) (40° C./75% RH, 14 days): 0.16%
Appearance (40° C./75% RH, 30 days): Off-white
Content (%) (40° C./75% RH, 30 days): 100.19%
Related substance (%) (40° C./75% RH, 30 days): 0.16%
Appearance [1]: Off-white
Content (%) [1]: 100.00%
Related substance (%) [1]: 0.17%
Appearance [2]: Off-white
Content (%) [2]: 99.86%
Related substance (%) [2]: 0.18%
Appearance [3]: Off-white
Content (%) [3]: 100.61%
Related substance (%) [3]: 0.19%
Appearance [4]: Off-white
Content (%) [4]: 99.84%
Related substance (%) [4]: 0.16%
Appearance [5]: Off-white
Content (%) [5]: 100.47%
Related substance (%) [5]: 0.17%

CNC[C@H](O)c1ccc(O)c(O)c1 [epinephrine bitartrate]
Appearance (25° C./60% RH, 0 days): Off-white
Content (%) (25° C./60% RH, 0 days): 100.00%
Related substance (%) (25° C./60% RH, 0 days): 0.08%
Appearance (25° C./60% RH, 5 days): Off-white
Content (%) (25° C./60% RH, 5 days): 100.05%
Related substance (%) (25° C./60% RH, 5 days): 0.08%
Appearance (25° C./60% RH, 7 days): Off-white
Content (%) (25° C./60% RH, 7 days): 100.83%
Related substance (%) (25° C./60% RH, 7 days): 0.08%
Appearance (25° C./60% RH, 14 days): Off-white
Content (%) (25° C./60% RH, 14 days): 99.82%
Related substance (%) (25° C./60% RH, 14 days): 0.09%
Appearance (25° C./60% RH, 30 days): Off-white
Content (%) (25° C./60% RH, 30 days): 100.33%
Related substance (%) (25° C./60% RH, 30 days): 0.09%
Appearance (40° C./75% RH, 0 days): Off-white
Content (%) (40° C./75% RH, 0 days): 100.00%
Related substance (%) (40° C./75% RH, 0 days): 0.08%
Appearance (40° C./75% RH, 5 days): Off-white
Content (%) (40° C./75% RH, 5 days): 100.43%
Related substance (%) (40° C./75% RH, 5 days): 0.09%
Appearance (40° C./75% RH, 7 days): Off-white
Content (%) (40° C./75% RH, 7 days): 100.84%
Related substance (%) (40° C./75% RH, 7 days): 0.09%
Appearance (40° C./75% RH, 14 days): Off-white
Content (%) (40° C./75% RH, 14 days): 100.17%
Related substance (%) (40° C./75% RH, 14 days): 0.09%
Appearance (40° C./75% RH, 30 days): Off-white
Content (%) (40° C./75% RH, 30 days): 100.96%
Related substance (%) (40° C./75% RH, 30 days): 0.10%
Appearance [1]: Off-white
Content (%) [1]: 100.00%
Related substance (%) [1]: 0.08%
Appearance [2]: Off-white
Content (%) [2]: 99.71%
Related substance (%) [2]: 0.10%
Appearance [3]: Off-white
Content (%) [3]: 102.34%
Related substance (%) [3]: 0.10%
Appearance [4]: Off-white
Content (%) [4]: 100.43%
Related substance (%) [4]: 0.09%
Appearance [5]: Off-white
Content (%) [5]: 100.39%
Related substance (%) [5]: 0.09%
